Measurements reported in patent publication EP1611892A2, “Pharmaceutical compositions comprising drospirenone” (Schering Aktiengesellschaft, priority 2000, dated 2001).

Assays:
Format in all cases: physicochemical
[1] = In vitro dissolution from a tablet preparation (USP XXIII Paddle Method); conditions: drospirenone in micronized form; rapid dissolution defined as at least 70% over about 30 minutes from a 3 mg tablet in 900 ml of water at 37°C, 50 rpm
[2] = Solubility in water and aqueous buffers; conditions: in water and aqueous buffers at various pH values
[3] = Chemical stability under acid and alkaline conditions

C[C@]12CCC(=O)C=C1[C@@H]1C[C@@H]1[C@H]1[C@@H]3[C@@H]4C[C@@H]4[C@@]4(CCC(=O)O4)[C@@]3(C)CC[C@@H]12 [drospirenone, 6β,7β;15β;16β-dimethylene-3-oxo-17α-preg-4-ene-21,17-carbolactone]
dissolution of the active compound from the composition in vitro [1]: rapid dissolution
solubility [2]: sparingly soluble
stability under acid conditions ([3]; acid conditions): rearranged to an inactive isomer
stability under alkaline conditions ([3]; alkaline conditions): hydrolysed
